US20260226038A1, “NEW COMPOUNDS FOR TREATING STAPHYLOCOCCUS INFECTIONS” (AB2 THERAPEUTICS, S. L., priority 2023, published 2026)
In brackets after ≈: the same amount, converted by molar mass.

These compounds were tested on Staphylococcus aureus (assay: MIC test, microdilution method (CLSI)). Conditions: ATCC strains of Staphylococcus aureus; 18-20 h at 37° C.; growth inhibited ≥80% compared to growth control.
Type: cell-based
Protocol: Experimental Procedure: MIC Test. Microdilution Method To evaluate the antimicrobial activity of the compounds, ATCC strains of Staphylococcus aureus were used. The minimal inhibitory concentrations (MICs) of the compounds were determined by microdilution assays, according to CLSI methodology. 3 mg of compound were weighted in a 4 mL glass vials and were dissolved in properly volume of DMSO 100% (Reference: […]-50, Sigma) to reach 12.8 mg/mL (Cmax). In 96-well plates U-form (Reference: 650161, Greiner Bio-One): • Dispense 50 μL of the assayed compounds prepared in DMSO 100% at 12.8 mg/mL in each well in column 1. (8 different compounds per plate, row 1 to row 8) • Dispense 25 μL of DMSO 100% in all wells in columns 2 to 12. • With a multichannel pipette, aspire 25 μL of column 1 and dispense in column 2. Mix the contents in column 2 several times and aspire 25 μL. Dispense in column 3. • Repeat the process until column 10. In column 10, aspire 25 μL of the content and discard. In 96-well plates U-form: • With a multichannel pipette (in dispensing mode), aspire a properly volume (consider the number of copies of the mother plate do you want to perform) of all wells in mother plate, to dispense 1 μL/well in daughter plates. Tecan instrument (FREEDOM EVO 100) was used to make the mother and daughter plates. Bacterial suspension will be prepared and normalized to 0.5 McFarland turbidity standard (aprox. 10^8 CFU/mL) using a physiological saline solution (sodium chloride 0.9%). Then, prepared a 1/1000 dilution (aprox. 10^5 CFU/mL) of the suspension in appropriate media (CLSI Standard) and inoculate 99 μL in each well in daughter plates (only columns 1 to 11) using a MultidropTM Combi Reagent Dispenser. In column 12, only 99 μL of media will be dispense as a sterility control. The final plate map is (all values in μg/mL): Plates will be incubated 18-20 h at 37° C. MIC values will be considered as the concentration of compounds at which the growth will be inhibited=>≥80%, compared to growth control.

Point of comparison: `COc1ccccc1N(CCCO)C(=O)Cc1noc(CN2C(=O)C(=O)N(CC3CC3)C2=O)n1` [Example 4, 2-(5-((3-(cyclopropylmethyl)-2,4,5-trioxoimidazolidin-1-yl)methyl)-1,2,4-oxadiazol-3-yl)-N-(3-hydroxypropyl)-N-(2-methoxyphenyl)acetamide], MIC 16 µg/mL (≈ 33.9 µM). Against it:
- COc1ccccc1N(CCO)C(=O)Cc1noc(CN2C(=O)C(=O)N(CC3CC3)C2=O)n1 [Example 1, 2-(5-((3-(Cyclopropylmethyl)-2,4,5-trioxoimidazolidin-1-yl)methyl)-1,2,4-oxadiazol-3-yl)-N-(2-hydroxyethyl)-N-(2-methoxyphenyl)acetamide] — 4-fold lower, 4 µg/mL (≈ 8.74 µM)
- COc1ccccc1NC(=O)Cc1noc(CN2C(=O)C(=O)N(CC3CC3)C2=O)n1 [Example 27, 2-(5-((3-(Cyclopropylmethyl)-2,4,5-trioxoimidazolidin-1-yl)methyl)-1,2,4-oxadiazol-3-yl)-N-(2-methoxyphenyl)acetamide] — 4-fold lower, 4 µg/mL (≈ 9.68 µM)
- COc1ccccc1N(C)C(=O)Cc1noc(CN2C(=O)C(=O)N(CC3CC3)C2=O)n1 [Example 26, 2-(5-((3-(Cyclopropylmethyl)-2,4,5-trioxoimidazolidin-1-yl)methyl)-1,2,4-oxadiazol-3-yl)-N-(2-methoxyphenyl)-N-methylacetamide] — 4-fold lower, 4 µg/mL (≈ 9.36 µM)
- CCN(C(=O)Cc1noc(CN2C(=O)C(=O)N(CC3CC3)C2=O)n1)c1ccccc1OC [Example 24, 2-(5-((3-(Cyclopropylmethyl)-2,4,5-trioxoimidazolidin-1-yl)methyl)-1,2,4-oxadiazol-3-yl)-N-ethyl-N-(2-methoxyphenyl)acetamide] — 2-fold lower, 8 µg/mL (≈ 18.1 µM)
- COc1ccccc1N(CCOCCO)C(=O)Cc1noc(CN2C(=O)C(=O)N(CC3CC3)C2=O)n1 [Example 5, 2-(5-((3-(cyclopropylmethyl)-2,4,5-trioxoimidazolidin-1-yl)methyl)-1,2,4-oxadiazol-3-yl)-N-(2-(2-hydroxyethoxy)ethyl)-N-(2-methoxyphenyl)acetamide] — 2-fold higher, 32 µg/mL (≈ 63.8 µM)
